Measurements reported in ChEMBL document CHEMBL1201862, “PubChem BioAssay data set” (2004).
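Interpolation was linear, between the two tested concentrations surrounding the appropriate level; five concentrations were tested over 48 hours in 96-well plates. GI50 is the concentration that inhibits growth by half.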 Active and inactive are the calls of the source. Rule as the data show it: active = GI50 up to about 1.1 µM and inactive = higher.

Legend:
Experiment in all cases: NCI-60 cell line screen, 48 h
MDA-MB-231 = tested on: MDA-MB-231
RXF 393 = tested on: RXF 393
UO-31 = tested on: UO-31
Malme-3M = tested on: Malme-3M
NCI-H522 = tested on: NCI-H522
NCI/ADR-RES = tested on: NCI/ADR-RES
SK-MEL-28 = tested on: SK-MEL-28
HL-60 = tested on: HL-60
Hs-578T = tested on: Hs-578T
COLO 205 = tested on: COLO 205
HOP-92 = tested on: HOP-92
ACHN = tested on: ACHN
NCI-H226 = tested on: NCI-H226
EKVX = tested on: EKVX
UACC-62 = tested on: UACC-62
RPMI-8226 = tested on: RPMI-8226
CCRF-CEM = tested on: CCRF-CEM
SNB-75 = tested on: SNB-75
HCC 2998 = tested on: HCC 2998
NCI-H460 = tested on: NCI-H460
HCT-116 = tested on: HCT-116
SW-620 = tested on: SW-620
786-0 = tested on: 786-0
MOLT-4 = tested on: MOLT-4
A498 = tested on: A498
TK-10 = tested on: TK-10
OVCAR-3 = tested on: OVCAR-3
NCI-H23 = tested on: NCI-H23
OVCAR-4 = tested on: OVCAR-4
CAKI-1 = tested on: CAKI-1
MDA-MB-435 = tested on: MDA-MB-435
SF-268 = tested on: SF-268
K562 = tested on: K562
A549 = tested on: A549
HOP-62 = tested on: HOP-62
IGROV-1 = tested on: IGROV-1
OVCAR-5 = tested on: OVCAR-5
SF-295 = tested on: SF-295
SN12C = tested on: SN12C
M14 = tested on: M14
UACC-257 = tested on: UACC-257
OVCAR-8 = tested on: OVCAR-8
SF-539 = tested on: SF-539
SR = tested on: SR
DU-145 = tested on: DU-145
SNB-19 = tested on: SNB-19
HT-29 = tested on: HT-29
LOX IMVI = tested on: LOX IMVI
SK-MEL-5 = tested on: SK-MEL-5
T47D = tested on: T47D
U-251 = tested on: U-251
HCT-15 = tested on: HCT-15
PC-3 = tested on: PC-3
BT-549 = tested on: BT-549
MCF7 = tested on: MCF7
KM12 = tested on: KM12
SK-MEL-2 = tested on: SK-MEL-2
SK-OV-3 = tested on: SK-OV-3

`O=[N+]([O-])c1cc(Cl)cc2cc(Cl)cnc12` was tested, and the GI50 (MDA-MB-231) was 60.1 µM (inactive), the GI50 (RXF 393) was > 100 µM (inactive) and the GI50 (UO-31) was > 100 µM (inactive). For the same molecule, the GI50 (Malme-3M) was > 100 µM (inactive), the GI50 (NCI-H522) was > 100 µM (inactive) and the GI50 (NCI/ADR-RES) was > 100 µM (inactive). For the same molecule, the GI50 (SK-MEL-28) was > 100 µM (inactive), the GI50 (HL-60) was 62.4 µM (inactive) and the GI50 (Hs-578T) was 25.9 µM (inactive). The GI50 (COLO 205) was > 100 µM (inactive), the GI50 (HOP-92) was > 100 µM (inactive) and the GI50 (ACHN) was > 100 µM (inactive). For the same molecule, the GI50 (NCI-H226) was > 100 µM (inactive), the GI50 (EKVX) was 83.2 µM (inactive) and the GI50 (UACC-62) was 53.2 µM (inactive). The GI50 (RPMI-8226) was > 100 µM (inactive), the GI50 (CCRF-CEM) was > 100 µM (inactive) and the GI50 (SNB-75) was 15.6 µM (inactive). The GI50 (HCC 2998) was > 100 µM (inactive), the GI50 (NCI-H460) was > 100 µM (inactive) and the GI50 (HCT-116) was 95.1 µM (inactive). For the same molecule, the GI50 (SW-620) was > 100 µM (inactive), the GI50 (786-0) was > 100 µM (inactive) and the GI50 (MOLT-4) was > 100 µM (inactive). The GI50 (A498) was 48 µM (inactive), the GI50 (TK-10) was > 100 µM (inactive) and the GI50 (OVCAR-3) was > 100 µM (inactive). For the same molecule, the GI50 (NCI-H23) was > 100 µM (inactive), the GI50 (OVCAR-4) was 35.7 µM (inactive) and the GI50 (CAKI-1) was > 100 µM (inactive). For the same molecule, the GI50 (MDA-MB-435) was > 100 µM (inactive), the GI50 (SF-268) was > 100 µM (inactive) and the GI50 (K562) was > 100 µM (inactive). The GI50 (A549) was > 100 µM (inactive), the GI50 (HOP-62) was > 100 µM (inactive) and the GI50 (IGROV-1) was 7.35 µM (inactive). For the same molecule, the GI50 (OVCAR-5) was > 100 µM (inactive), the GI50 (SF-295) was > 100 µM (inactive) and the GI50 (SN12C) was > 100 µM (inactive). The GI50 (M14) was > 100 µM (inactive), the GI50 (UACC-257) was 61.4 µM (inactive) and the GI50 (OVCAR-8) was 98.9 µM (inactive). For the same molecule, the GI50 (SF-539) was > 100 µM (inactive), the GI50 (SR) was 63.8 µM (inactive) and the GI50 (DU-145) was > 100 µM (inactive). For the same molecule, the GI50 (SNB-19) was > 100 µM (inactive), the GI50 (HT-29) was > 100 µM (inactive) and the GI50 (LOX IMVI) was > 100 µM (inactive). For the same molecule, the GI50 (SK-MEL-5) was 62.5 µM (inactive), the GI50 (T47D) was 16.4 µM (inactive) and the GI50 (U-251) was > 100 µM (inactive). For the same molecule, the GI50 (HCT-15) was > 100 µM, the GI50 (PC-3) was 93.5 µM (inactive) and the GI50 (BT-549) was > 100 µM (inactive).

In the case of `c1ccc2c(c1)sc1c3cnccc3ccc21`, the GI50 (MDA-MB-231) was > 100 µM (inactive), the GI50 (UO-31) was > 100 µM (inactive) and the GI50 (Malme-3M) was 66.8 µM (inactive). The GI50 (NCI-H522) was > 100 µM (inactive), the GI50 (NCI/ADR-RES) was > 100 µM (inactive) and the GI50 (SK-MEL-28) was > 100 µM (inactive). For the same molecule, the GI50 (HL-60) was 40.6 µM (inactive), the GI50 (Hs-578T) was 29 µM (inactive) and the GI50 (COLO 205) was 90.8 µM (inactive). For the same molecule, the GI50 (ACHN) was 90.4 µM (inactive), the GI50 (MCF7) was 24.1 µM (inactive) and the GI50 (NCI-H226) was 24.2 µM (inactive). The GI50 (EKVX) was 6.71 µM (inactive), the GI50 (UACC-62) was 80.4 µM (inactive) and the GI50 (RPMI-8226) was 0.0697 µM (active). For the same molecule, the GI50 (KM12) was 46.6 µM (inactive), the GI50 (SNB-75) was > 100 µM (inactive) and the GI50 (HCC 2998) was > 100 µM (inactive). For the same molecule, the GI50 (NCI-H460) was 24.9 µM (inactive), the GI50 (HCT-116) was > 100 µM (inactive) and the GI50 (SW-620) was 76.4 µM (inactive). For the same molecule, the GI50 (786-0) was > 100 µM (inactive), the GI50 (MOLT-4) was 19.5 µM (inactive) and the GI50 (A498) was > 100 µM (inactive). The GI50 (TK-10) was 51.2 µM (inactive), the GI50 (OVCAR-3) was > 100 µM (inactive) and the GI50 (NCI-H23) was > 100 µM (inactive). For the same molecule, the GI50 (OVCAR-4) was > 100 µM (inactive), the GI50 (CAKI-1) was 43.3 µM (inactive) and the GI50 (MDA-MB-435) was > 100 µM (inactive). For the same molecule, the GI50 (SF-268) was > 100 µM (inactive), the GI50 (K562) was > 100 µM (inactive) and the GI50 (A549) was 33.7 µM (inactive). The GI50 (HOP-62) was > 100 µM (inactive), the GI50 (IGROV-1) was 25.3 µM (inactive) and the GI50 (OVCAR-5) was > 100 µM (inactive). For the same molecule, the GI50 (SF-295) was 85.9 µM (inactive), the GI50 (SN12C) was > 100 µM (inactive) and the GI50 (M14) was > 100 µM (inactive). For the same molecule, the GI50 (UACC-257) was 56.6 µM (inactive), the GI50 (SF-539) was 82.2 µM (inactive) and the GI50 (SR) was 11.6 µM (inactive). For the same molecule, the GI50 (DU-145) was > 100 µM (inactive), the GI50 (SNB-19) was > 100 µM (inactive) and the GI50 (HT-29) was 99.8 µM (inactive). For the same molecule, the GI50 (LOX IMVI) was 71.6 µM (inactive), the GI50 (SK-MEL-5) was > 100 µM (inactive) and the GI50 (T47D) was > 100 µM (inactive). For the same molecule, the GI50 (U-251) was > 100 µM (inactive), the GI50 (HCT-15) was > 100 µM and the GI50 (BT-549) was > 100 µM (inactive). The GI50 (SK-MEL-2) was > 100 µM (inactive) and the GI50 (SK-OV-3) was > 100 µM (inactive).
